“Also recorded” adds a separate entry of the source. Where two headings read alike, the source gives them in different places.
Tests used:
fungi [1] = conditions: various fungi; known antibiotics; cited from earlier work
HeLa S3 cells = assay: Cytocidal action on HeLa S3 cells; conditions: for growth inhibitory activities: HeLa S3 cells
[2] = test system: Piricularia oryzae KF 180; assay: microbe, parasite or virus in culture; type: cell-based; conditions: at 1 mg/ml; read-out: Inhibitory zone
fungi [3] = assay: Antifungal activity (in words); type: cell-based; conditions: trienomycins
Nature (acidity) = type: physicochemical
Stability = type: physicochemical
[4] = test system: sarcoma-180 carcinoma cells; assay: Growth inhibition of sarcoma-180 carcinoma cells; type: cell-based
sarcoma-180 = assay: Antitumor activity, life prolongation in sarcoma-180-carcinoma-bearing ICR mice; type: in vivo; conditions: intraperitoneal, 1-5 days and 7-11 days
Excerpt: Trienomycin A, B or C is administrated intraperitoneally in sarcoma-180-carcinoma-bearing ICR mice for 1-5 days and 7-11 days. The life prolongation effects are observed as shown in the following: […]

Solubility = type: physicochemical
[5] = acidic condition at ambient temperature
[6] = chloroform, dichloromethane, tetrahydrofuran, ethyl acetate, butyl acetate, acetone, methanol, ethanol

COC1C=CC=CC=CCC(OC(=O)C(C)NC(=O)C2CCCCC2)C(C)C(O)C(C)=CCCC2=CC(=O)C=C(NC(=O)C1)C2=O (stereo not drawn) [mycotrienin I]
antifungal activity (fungi [1]): exhibit antifungal activity against various fungi

CO[C@@H]1/C=C/C=C/C=C\C[C@H](OC(=O)[C@@H](C)NC(=O)CC(C)C)[C@@H](C)[C@H](O)/C(C)=C/CCC2=CC(=O)C=C(NC(=O)C1)C2=O [ansatrienin A3]
antifungal activity (fungi [1]): exhibit antifungal activity against various fungi

COC1C=CC=CC=CCC(OC(=O)C(C)NC(=O)C2CCCCC2)C(C)C(O)C(C)=CCCc2cc(O)cc(c2O)NC(=O)C1 (stereo not drawn) [mycotrienin II]
antifungal activity (fungi [1]): exhibit antifungal activity against various fungi

COC1C=CC=CC=CCC(OC(=O)C(C)NC(=O)C2CCCCC2)C(C)C(O)C(C)=CCCc2cc(O)cc(c2)NC(=O)C1 (stereo not drawn) [Trienomycin A]
death of the HeLa S3 cells (HeLa S3 cells; 1.0 μg/ml): death of the HeLa S3 cells
growth inhibitory activities (HeLa S3 cells): growth inhibitory activities
zone of inhibition at 1000 µg/mL [2]: 20 mm
antifungal activity (fungi [3]): exhibit antifungal activity against some kind of fungi
Nature (Nature (acidity)): weakly acidic substance; also recorded: weak acidic substances
Stability (Stability; [5]): Stable
Stability (Stability; alkaline condition over pH 10): Instable
growth inhibitory activities [4]: growth inhibitory activities
Life Prolongation Ratio (sarcoma-180; 10 mg/kg/day): 33%
Life Prolongation Ratio (sarcoma-180; 20 mg/kg/day): 76%
Solubility (Solubility; [6]): Soluble
Solubility (Solubility; hexane, water): Insoluble

COC1C=CC=CC=CCC(OC(=O)C(C)NC(=O)CC(C)C)C(C)C(O)C(C)=CCCc2cc(O)cc(c2)NC(=O)C1 (stereo not drawn) [Trienomycin B]
death of the HeLa S3 cells (HeLa S3 cells; 2.0 μg/ml): death of the HeLa S3 cells
growth inhibitory activities (HeLa S3 cells): growth inhibitory activities
zone of inhibition at 1000 µg/mL [2]: 15 mm
antifungal activity (fungi [3]): exhibit antifungal activity against some kind of fungi
Nature (Nature (acidity)): weakly acidic substance; also recorded: weak acidic substances
Stability (Stability; [5]): Stable
Stability (Stability; alkaline condition over pH 10): Instable
growth inhibitory activities [4]: growth inhibitory activities
Life Prolongation Ratio (sarcoma-180; 10 mg/kg/day): 45%
Life Prolongation Ratio (sarcoma-180; 20 mg/kg/day): 80%
Solubility (Solubility; [6]): Soluble
Solubility (Solubility; hexane, water): Insoluble

CCC(C)C(=O)NC(C)C(=O)OC1CC=CC=CC=CC(OC)CC(=O)Nc2cc(O)cc(c2)CCC=C(C)C(O)C1C (stereo not drawn) [Trienomycin C]
death of the HeLa S3 cells (HeLa S3 cells; 2.0 μg/ml): death of the HeLa S3 cells
growth inhibitory activities (HeLa S3 cells): growth inhibitory activities
zone of inhibition at 1000 µg/mL [2]: 12 mm
antifungal activity (fungi [3]): exhibit antifungal activity against some kind of fungi
Nature (Nature (acidity)): weakly acidic substance; also recorded: weak acidic substances
Stability (Stability; [5]): Stable
Stability (Stability; alkaline condition over pH 10): Instable
growth inhibitory activities [4]: growth inhibitory activities
Life Prolongation Ratio (sarcoma-180; 10 mg/kg/day): 50%
Life Prolongation Ratio (sarcoma-180; 20 mg/kg/day): 110%
Solubility (Solubility; [6]): Soluble
Solubility (Solubility; hexane, water): Insoluble

— patent US5109133A, “Antibiotic trienomycins and their production” (priority 1985, dated 1992)
